# Patent US7691925B2, “Pressure-sensitive adhesive composition, pressure-sensitive adhesive sheets and surface protecting film” (priority 2004, dated 2010)
# Conditions: 1 part ionic liquid in 9 parts toluene, 25° C., naked eyes
# Experimental: “Toluene-soluble” in the present invention means that an ionic liquid is soluble in toluene, more specifically, refers to such nature that an ionic liquid is uniformly dissolved in toluene upon preparation of a 10 weight % solution of an ionic-liquid in toluene.
# 9 Parts by weight of toluene (guaranteed grade manufactured by Wako Pure Chemical Industries, Ltd.) was added to 1 part by weight of an ionic liquid, and this was mixed and stirred under a normal temperature (25° C.) for 10 minutes, and allowed to stand for 30 minutes.
# Thereafter, solubility was assessed with naked eyes, and toluene-solubility was determined. In assessment criteria, the state where no separated substance is observed, and a substance is uniformly dissolved was assessed as “soluble” (existence of toluene-solubility).
row,SMILES,Toluene-solubility
1,"CCCCC[N+](CCCCC)(CCCCC)CCCCC.O=S(=O)([O-])C(F)(F)F [ionic liquid (1), tetra-n-pentylammonium trifluoromethanesulfonate]",possession of toluene-solubility was confirmed
2,"CCCCCC[N+](CCCCCC)(CCCCCC)CCCCCC.O=S(=O)([O-])C(F)(F)F [ionic liquid (2), tetra-n-hexylammonium trifluoromethanesulfonate]",possession of toluene-solubility was confirmed
3,"CCCCCCC[N+](CCCCCCC)(CCCCCCC)CCCCCCC.O=S(=O)([O-])C(F)(F)F [ionic liquid (3), tetra-n-heptylammonium trifluoromethanesulfonate]",possession of toluene-solubility was confirmed
4,"CCCCCCCC[P+](CCCCCCCC)(CCCCCCCC)CCCCCCCC.O=S(=O)([O-])C(F)(F)F [ionic liquid (4), tetra-n-octylphosphonium trifluoromethanesulfonate]",possession of toluene-solubility was confirmed
5,"CCCC[n+]1cccc(C)c1.O=S(=O)([N-]S(=O)(=O)C(F)(F)F)C(F)(F)F [ionic liquid (6), 1-butyl-3-methylpyridinium bis(trifluoromethanesulfon)imide, reference compound]",possession of toluene-solubility was not confirmed
